Experimental data: ChEMBL document CHEMBL1141600, “Biphenyl versus phenylpyridazine derivatives: the role of the heterocycle in a series of acyl-CoA:cholesterol acyl transferase inhibitors” (J Med Chem, 2008)

Experiments:
[1] = molecular target: T1, Sterol O-acyltransferase 2 (Homo sapiens, UniProt O75908); experiment: Inhibition of human ACAT2 expressed in insect Hi5 cells; set-up: species or system BTI-TN-5B1-4
T1 sequence (O75908 whole entry): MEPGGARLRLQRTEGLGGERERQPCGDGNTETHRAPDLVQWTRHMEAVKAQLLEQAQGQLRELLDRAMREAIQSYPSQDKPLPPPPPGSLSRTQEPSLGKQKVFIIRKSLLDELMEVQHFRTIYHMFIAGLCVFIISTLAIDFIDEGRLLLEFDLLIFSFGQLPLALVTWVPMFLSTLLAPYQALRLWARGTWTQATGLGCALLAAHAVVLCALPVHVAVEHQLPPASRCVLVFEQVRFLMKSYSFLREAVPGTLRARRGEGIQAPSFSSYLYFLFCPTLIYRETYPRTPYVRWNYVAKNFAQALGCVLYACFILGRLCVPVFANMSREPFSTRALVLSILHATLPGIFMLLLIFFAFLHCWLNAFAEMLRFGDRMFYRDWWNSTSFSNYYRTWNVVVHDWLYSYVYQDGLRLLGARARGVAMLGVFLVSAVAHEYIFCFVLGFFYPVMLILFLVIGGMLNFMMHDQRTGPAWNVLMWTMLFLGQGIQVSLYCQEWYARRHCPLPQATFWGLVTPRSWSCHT

[2] = molecular target: T2, Sterol O-acyltransferase 2 (Homo sapiens) (UniProt O75908); experiment: Inhibition of human ACAT2 expressed in insect Hi5 cells at 50 uM; details: BTI-TN-5B1-4
T2 sequence (whole entry): T1 sequence (O75908 whole entry)

[3] = molecular target: T3, Sterol O-acyltransferase 1 (Homo sapiens) (UniProt P35610); experiment: Inhibition of human ACAT1 expressed in insect Hi5 cells at 0.5 uM; details: BTI-TN-5B1-4
T3 sequence (whole entry): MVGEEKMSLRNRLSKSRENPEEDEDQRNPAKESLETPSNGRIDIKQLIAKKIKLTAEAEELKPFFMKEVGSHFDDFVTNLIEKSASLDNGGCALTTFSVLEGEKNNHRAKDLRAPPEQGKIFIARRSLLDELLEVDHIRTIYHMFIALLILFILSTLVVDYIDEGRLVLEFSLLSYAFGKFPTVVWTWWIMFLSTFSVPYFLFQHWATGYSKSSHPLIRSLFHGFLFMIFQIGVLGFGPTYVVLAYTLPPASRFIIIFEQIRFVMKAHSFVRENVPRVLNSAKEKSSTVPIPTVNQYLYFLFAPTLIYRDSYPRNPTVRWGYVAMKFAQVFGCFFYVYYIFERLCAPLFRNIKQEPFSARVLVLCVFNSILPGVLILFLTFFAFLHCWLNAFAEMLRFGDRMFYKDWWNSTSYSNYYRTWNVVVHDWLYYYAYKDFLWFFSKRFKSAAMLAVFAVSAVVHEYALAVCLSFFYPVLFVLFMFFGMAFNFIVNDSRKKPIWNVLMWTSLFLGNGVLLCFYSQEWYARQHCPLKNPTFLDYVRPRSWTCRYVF

[4] = molecular target: T2, Sterol O-acyltransferase 2 (Homo sapiens); experiment: Inhibition of human ACAT2 expressed in insect Hi5 cells at 0.5 uM; details: BTI-TN-5B1-4

| inhibition [2] | Structure (SMILES) | other results |
| --- | --- | --- |
| 27% | CCCCCCCCC(=O)Nc1ccccc1-c1ccccc1 | IC50 [1]: 414 µM |
| -1% | CCCCCCCCCNc1ccccc1-c1ccccc1 |  |
| 18% | CCCCCCCCCNc1ccc(-c2ccccc2)cc1 |  |
| 20% | CCCCCCCCC(=O)Nc1ccc(-c2ccccc2)cc1 |  |
| -6% | CCCCCCCCC(=O)Nc1cccc(-c2ccccc2)c1 |  |
| 39% | CCCCCCCC(=O)Nc1ccccc1-c1ccccc1 | IC50 [1]: 230 µM |
| 11% | CCCCCCCC(=O)Nc1ccc(-c2ccccc2)cc1 |  |
|  | CCCCCCCC/C=C\CCC(CCCC(C(=O)Nc1ccccc1)C(C)C)C(C)C (stereo not given) | inhibition [3]: 53%; inhibition [4]: 47% |
| -4% | CCCCCCCCNc1ccccc1-c1ccccc1 |  |
| 6% | CCCCCCCCNc1ccc(-c2ccccc2)cc1 |  |
| -8% | CCCCCCCCCNc1cccc(-c2ccccc2)c1 |  |
| -4% | CCCCCCCC(=O)Nc1cccc(-c2ccccc2)c1 |  |
